Series [1] can be described thus: Kinetic solubility at pH 1 and 7. The class given is physicochemical. The following applies: 1.0% DMSO; for solubility kinetic at 24 h: 23 °C, kinetic from dmso stock. On the procedure: Kinetic Solubility at pH 1 and 7
100-fold dilutions of each compound as DMSO stock solution were prepared by combining 3 μL of DMSO stock with 297 μL of the appropriate media in a Millipore solubility filter plate with 0.45 μM polycarbonate filter membrane using Hamilton Starlet liquid handling. The final DMSO Concentration is 1.0% and maximum theoretical compound concentration is […] (assuming stock concentration of 10 mM). The filter plate was sealed. Following 24-hour incubation at ambient temperature (22.2-23.6° C.), the samples were vacuum filtered, and the filtrates were collected in a 96 well polypropylene plate for analysis. The collection plate was sealed for analysis. Filtrates were injected into the nitrogen detector for quantification. The equimolar nitrogen response of the detector is calibrated using standards which span the dynamic range of the instrument from 0.08 to 4500 μg/ml nitrogen. The filtrates were quantified with respect to this calibration curve. The calculated solubility values are corrected for background nitrogen present in the DMSO, and the media used to prepare the samples

Series [2] is described as follows: Thermodynamic solubility in FaSSIF and FeSSIF. The class given is physicochemical. Conditions: 20 hours, ambient temperature; for FaSSIF (pH 6.5): fasted-state simulated intestinal fluid pH 6.5; for FeSSIF (pH 5.0): fed-state simulated intestinal fluid pH 5.0. On the procedure:
Thermodynamic Solubility in FASSIF and FESSIF.
The aqueous solubility of compounds over a time of 20 hours was assessed. Solubility was determined at ambient temperature in buffered fasted-state simulated intestinal fluid (FaSSIF, pH 6.5) and buffered fed-state simulated intestinal fluid (FeSSIF, pH 5.0) prepared in-house using BioRelevant Simulated Intestinal Fluid (SIF) powder. Solids were added to FaSSIF or FeSSIF in 1.5-mL Eppendorf tubes, vortexed for 1 minute, then agitated for 20 hours in an Eppendorf ThermoMixer C. To determine concentration in solution, the suspensions were centrifuged for 10 min at 14,800 rpm and supernatants were diluted to a volume of 1 mL with 1:1 v/v acetonitrile:water. All diluted supernatants were analyzed by UPLC using a Waters Acquity UPLC with a PDA UV detector.

Series [3] can be described thus: In vivo cyno pharmacokinetics. The following applies: cynomolgus monkeys. On the procedure: In Vivo Cyno Pharmacokinetics Experiments
In vivo cyno pharmacokinetic experiments of compound Comparator B and Example 1 were assessed as follows.
Compound Comparator B hydrochloride salt was dosed as a 30 mg/kg suspension to cynomolgus monkeys (N=3) using the following formulation: 0.5% Methocel E4M Premium, 0.1% Tween-80, 99.4% Water. Compound Comparator B free base was dosed separately as a 12.5 mg/kg (50 mg-fixed) suspension to cynomolgus monkeys (N=3) using the following formulation: 0.5% Methocel E4M Premium, 0.1% Tween-80, 99.4% Water. Compound Example 1 was dosed separately as a 12.5 mg/kg (50 mg-fixed) suspension to cynomolgus monkeys (N=3) using the following formulation: 0.5% Methocel E4M Premium, 0.1% Tween-80, 99.4% Water. […] As is shown in Table 4, the AUC 0-24 h measured for Comparator B in plasma was higher after dosing with Example 1 than the value measured after dosing with an equivalent dose of Comparator B.

Series [4] concerns the target T1, alkaline phosphatase (intestinal) (Bos taurus, UniProt P19111).
T1 construct: purchased MilliPore Sigma
Briefly: Alkaline phosphatase stability assay. Conditions: 2 μM substrate, 100 ng/mL purified Bovine intestinal alkaline phosphatase, Tris buffer pH 7.8; read-out: ALP half life. The class given is in vitro ADME. On the procedure:
Alkaline Phosphatase Stability Assay
(§1) Alkaline phosphatase stability assays were carried out using purified Bovine intestinal alkaline phosphatase. Duplicate sets were performed with a TECAN liquid handler. Assay substrate concentrations were 2 μM. Purified Bovine intestinal alkaline phosphatase was acquired through MilliPore Sigma as a lyophilized powder. Reaction mixtures were prepared by the addition of 2 μL compound (400 μM stock solution in DMSO) into wells of a 96-well plate containing […] Tris buffer (100 mM, pH 7.8, 1 mM MgCl2 and 1 mM ZnCl2) with and without 100 ng/mL purified Bovine intestinal alkaline phosphatase. Samples were assessed at time points of 3, 30, 60, 120, 180 and 240 minutes. At each time point, 25 μL of the reaction mixtures were added into a 96-well plate containing 225 μL of quench solution (99% Acetonitrile with 1% Formic Acid and 100 nM Labetalol as internal standard). The plates containing the quench samples were then vortexed at 1100 RPM for 10 minutes and centrifuged at 4500 RPM for 20 minutes. 150 μL of the resulting supernatant was transferred into a 96-well plate containing 150 μL of water and vortexed at 1100 RPM for 3 minutes to mix.
(§2) Samples were analyzed with a Leap HTC Autosampler and a Dionex UltiMate 3000 HPLC system interfaced to a Thermo Q-Exactive mass spectrometer operating in positive ion electrospray mode. A Thermo Scientific Hypersil GOLD (1.9 μM particle size, 50×2.1 mm) HPLC column was used and mobile phase was pumped at 0.5 mL/min. Elution of analytes was achieved by a series of linear gradients of acetonitrile in water containing 0.1% (v/v) formic acid. Quantification was by analyte/internal standard peak area ratio (PAR).

Series [5] in a line: Assay buffer stability (Tris buffer without alkaline phosphatase). The class given is physicochemical. Conditions: 2 μM substrate, Tris buffer pH 7.8 without alkaline phosphatase. How it is done: as §1, §2
Where [6] appears, read: pH 1, 24-hour incubation at ambient temperature.
Where [7] appears, read: pH 7, 24-hour incubation at ambient temperature.
Setting [8] is: aqueous buffer, pH 7, 24-hour incubation at ambient temperature, read-out: Kinetic Solubility pH 7.
The mark [9] stands for this setting: simulated gastric fluid, pH 1, 24-hour incubation at ambient temperature, read-out: Kinetic Solubility pH 1.

≈ marks a conversion by molar mass, not a printed value. Counter-ions that a name gives are not always drawn. Like-named read-outs stand apart in the source and are kept apart here. Bounds are passed on as bounds.

T1 sequence (P19111 20-506 limits assumed): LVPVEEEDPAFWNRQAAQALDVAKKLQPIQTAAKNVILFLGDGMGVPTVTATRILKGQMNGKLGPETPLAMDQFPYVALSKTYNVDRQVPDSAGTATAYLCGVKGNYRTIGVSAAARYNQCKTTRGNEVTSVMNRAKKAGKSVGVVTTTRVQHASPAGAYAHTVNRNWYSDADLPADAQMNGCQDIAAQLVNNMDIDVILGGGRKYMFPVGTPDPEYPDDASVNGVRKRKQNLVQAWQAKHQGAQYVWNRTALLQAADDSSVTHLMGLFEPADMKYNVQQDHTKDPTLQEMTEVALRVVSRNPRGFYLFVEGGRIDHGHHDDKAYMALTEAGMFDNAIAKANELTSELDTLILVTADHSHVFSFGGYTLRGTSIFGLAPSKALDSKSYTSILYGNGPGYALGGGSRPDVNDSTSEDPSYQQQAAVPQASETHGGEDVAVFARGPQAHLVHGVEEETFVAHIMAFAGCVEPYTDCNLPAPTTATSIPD

On to “5-(3-fluoro-8-((1S,2S)-2-(1-(2,2,2-trifluoroethyl)-1H-pyrazolo[3,4-b]pyridin-6-yl)cyclopropyl)imidazo[1,2-b]pyridazin-6-yl)pyrimidine-2,4(1H,3H)-dione [reference compound]”, for which the “Kinetic Solubility pH 1” value in series [1] (setting [6]) worked out at 9 uM. Besides, the “Kinetic Solubility pH 7” value in series [1] (setting [7]) is on record as 6 uM.
Turning to “5-(7-((1S,2S)-2-(1-(2,2,2-trifluoroethyl)-1H-indazol-6-yl)cyclopropyl)pyrazolo[1,5-a]pyrimidin-5-yl)pyrimidine-2,4(1H,3H)-dione [reference compound]”, in series [2], the “FaSSIF (pH 6.5)” value is listed as 0.5 ug/mL and the “FeSSIF (pH 5.0)” value is given as 11.1 ug/mL. For the same molecule, the “Kinetic Solubility pH 1” value in series [1] (setting [6]) was determined as 65 uM. Further, the “Kinetic Solubility pH 7” value in series [1] (setting [7]) is 7 uM.
For “5-(8-((1S,2S)-2-(1-(2,2,2-trifluoroethyl)-1H-indazol-5-yl)cyclopropyl)imidazo[1,2-b]pyridazin-6-yl)pyrimidine-2,4(1H,3H)-dione [reference compound]”, in that order: 0.7 ug/mL, 12.4 ug/mL, 72 uM and 10 uM.
Take `CC1(C)CN(c2cc(-c3c[nH]c(=O)[nH]c3=O)nn3ccnc23)CC1(F)F` [B, 5-[8-(3,3-difluoro-4,4-dimethyl-pyrrolidin-1-yl)imidazo[1,2-b]pyridazin-6-yl]-1H-pyrimidine-2,4-dione, reference compound]: in series [2], the “FaSSIF (pH 6.5)” value is on record as 12 ug/mL and the “FeSSIF (pH 5.0)” value is recorded as 33 ug/mL. Further, in series [1] (setting [8]), the kinetic solubility (commonly solubility judged after dilution from a stock solution rather than from solid) at 24 h was 5 µM (≈ 1.81 µg/mL). Moreover, the kinetic solubility at 24 h in series [1] (setting [9]) was 95 µM (≈ 34.4 µg/mL).
For the molecule `CC1(C)CN(c2cc(-c3c[nH]c(=O)[nH]c3=O)nn3ccnc23)CC1(F)F` [Comparator B HCl salt, 5-[8-(3,3-difluoro-4,4-dimethyl-pyrrolidin-1-yl)imidazo[1,2-b]pyridazin-6-yl]-1H-pyrimidine-2,4-dione, reference compound], in series [3] (cynomolgus monkey, 120 mg fixed (30 mg/kg) suspension, Comparator B measured in plasma, read-out: Comparator B AUC 0-24 h), the AUC(0-t) was 33.2 µM·h.
Turning to `O=c1[nH]cc(-c2cc([C@H]3C[C@@H]3c3ccc4cnn(CC(F)(F)F)c4n3)c3ncc(F)n3n2)c(=O)[nH]1` [E, reference compound], the kinetic solubility at 24 h in series [1] (setting [8]) was 8 µM (≈ 3.89 µg/mL); in series [1] (setting [9]) it was 94 µM (≈ 45.7 µg/mL).
As to `CC1(C)CN(c2cc(-c3cn(COP(=O)(O)O)c(=O)[nH]c3=O)nn3ccnc23)CC1(F)F` [Example 1, (5-(8-(3,3-difluoro-4,4-dimethylpyrrolidin-1-yl)imidazo[1,2-b]pyridazin-6-yl)-2,4-dioxo-3,4-dihydropyrimidin-1(2H)-yl)methyl dihydrogen phosphate], in series [2], the “FaSSIF (pH 6.5)” value is >1000 ug/mL. Moreover, the “FeSSIF (pH 5.0)” value in series [2] is >1000 ug/mL. The solubility (kinetic) at 24 h in series [1] (setting [8]) and in series [1] (setting [9]) was > 100 µM each time. Besides, the half-life – broadly, how long it takes for the measured level to halve – at 2 µM is 10 min in series [4] and > 1580 min in series [5]. Further, the “AUC 0-24 h measured for Comparator B in plasma, compared with dosing an equivalent dose of Comparator B” value in series [3] (12.5 mg/kg (50 mg-fixed) suspension) is recorded as “higher”.
In the case of `O=c1[nH]c(=O)n(COP(=O)(O)O)cc1-c1cc([C@H]2C[C@@H]2c2ccc3cnn(CC(F)(F)F)c3c2)c2nccn2n1` [Example 2, (2,4-dioxo-5-(8-((1S,2S)-2-(1-(2,2,2-trifluoroethyl)-1H-indazol-6-yl)cyclopropyl)imidazo[1,2-b]pyridazin-6-yl)-3,4-dihydropyrimidin-1(2H)-yl)methyl dihydrogen phosphate], the figures for the solubility (kinetic) at 24 h in series [1] (setting [8]) and in series [1] (setting [9]) were 89 µM and 3 µM, respectively. In series [4], the half-life at 2 µM amounted to 11 min.
On to `O=c1c(-c2cc([C@H]3C[C@@H]3c3ccc4cnn(CC(F)(F)F)c4c3)c3ncc(F)n3n2)cn(COP(=O)(O)O)c(=O)n1COP(=O)(O)O` [Example 3, (5-(3-fluoro-8-((1S,2S)-2-(1-(2,2,2-trifluoroethyl)-1H-indazol-6-yl)cyclopropyl)imidazo[1,2-b]pyridazin-6-yl)-2,4-dioxopyrimidine-1,3(2H,4H)-diyl)bis(methylene) bis(dihydrogen phosphate)], for which the values for the solubility (kinetic) at 24 h in series [1] (setting [8]) and in series [1] (setting [9]) were > 100 µM and 91 µM, respectively.
Take `O=c1[nH]c(=O)n(COP(=O)(O)O)cc1-c1cc([C@H]2C[C@@H]2c2ccc3cnn(CC(F)(F)F)c3n2)c2ncc(F)n2n1` [Example 5, (5-(3-fluoro-8-((1S,2S)-2-(1-(2,2,2-trifluoroethyl)-1H-pyrazolo[3,4-b]pyridin-6-yl)cyclopropyl)imidazo[1,2-b]pyridazin-6-yl)-2,4-dioxo-3,4-dihydropyrimidin-1(2H)-yl)methyl dihydrogen phosphate]: the solubility (kinetic) at 24 h in series [1] (setting [8]) was 86 µM; in series [1] (setting [9]), 79 µM. Moreover, the half-life at 2 µM was 14 min in series [4] and > 1580 min in series [5].
On to `O=c1[nH]c(=O)n(COP(=O)(O)O)cc1-c1cc([C@H]2C[C@@H]2c2ccc3cnn(CC(F)(F)F)c3c2)n2nccc2n1` [Example 6, (2,4-dioxo-5-(7-((1S,2S)-2-(1-(2,2,2-trifluoroethyl)-1H-indazol-6-yl)cyclopropyl)pyrazolo[1,5-a]pyrimidin-5-yl)-3,4-dihydropyrimidin-1(2H)-yl)methyl dihydrogen phosphate], for which the figures for the kinetic solubility at 24 h in series [1] (setting [8]) and in series [1] (setting [9]) were 85 µM and 10 µM, respectively. The results for the half-life at 2 µM in series [4] and in series [5] were 8 min and > 1580 min, respectively.
`O=c1c(-c2cc([C@H]3C[C@@H]3c3ccc4cnn(CC(F)(F)F)c4c3)n3nccc3n2)cn(COP(=O)(O)O)c(=O)n1COP(=O)(O)O` [Example 7, (2,4-dioxo-5-(7-((1S,2S)-2-(1-(2,2,2-trifluoroethyl)-1H-indazol-6-yl)cyclopropyl)pyrazolo[1,5-a]pyrimidin-5-yl)pyrimidine-1,3(2H,4H)-diyl)bis(methylene) bis(dihydrogen phosphate)]: the figures for the kinetic solubility at 24 h in series [1] (setting [8]) and in series [1] (setting [9]) were > 100 µM and 89 µM, respectively.

Values taken from US11919869B2, “CD73 compounds” (Gilead Sciences, Inc., priority 2021, dated 2024).
